Measured values from US7205261B2, “Use of certain N-acylethanolamines to achieve ethylene- and cytokinin-like effects in plants and fungi” (Nutra-Park, Inc., priority 2002, dated 2007).
Where two headings read alike, the source gives them in different places.

Tests used:
[1] = system: Raphanus sativus L. cv. Cherry Belle cotyledons; assay: Radish cotyledon bioassay (expansion growth and chlorophyll accumulation); assay type: in vivo; parameters: Chlorophyll a + b: unit not given here; settings: for Change in fresh weight: continuous illumination, 25° C., ten cotyledons; for activity at 20 µg/mL: Raphanus sativus, read-out: Change in fresh weight, % of control
Text: Radish cotyledon bioassay: This bioassay using Raphanus sativus L. cv. Cherry Belle cotyledons was developed by Letham, DS (Physiologia Plantarum 25, 391–396, 1971, incorporated by reference in its entirety) to evaluate the efficacy of cytokinin on cell enlargement. Success using this assay is not restricted to radish. […] In addition to their effect on cell division, cytokinin plays a major role in driving cell enlargement. Compounds in this class of phytohormone and with cytokinin activity also help maintain photosynthetic activity and productivity and abolish proteolytic activity. In cotyledon leaf systems, a requirement for cytokinin is critical and removal of the roots (i.e. the presumed source of cytokinin) renders the cotyledon leaves unable to expand. Exposure to cytokinin (0.02–22 μg/ml) results in a dramatic increase in fresh weight of cotyledons within 72 hours. This effect is not observed with either gibberellin or auxin and is usually delayed or inhibited by abscisic acid and the ethylene precursor, 1-aminocyclopropane-1-carboxylic acid (ACC). […] Thus, the mode of action of cytokinin in this system appears to be similar to that of indole-3-acetic acid (IAA) in auxin-induced stem elongation, a process that depends on an increase in the mechanical extensibility of the cell wall. However, cytokinin antagonizes IAA-mediated cell elongation and appears to do so by promoting ethylene production. Furthermore, cytokinin-induced cell expansion is not usually accompanied by proton (H^+) extrusion and no change in plasma membrane ATPase activity is evident.
Seeds of Raphanus sativus L. cv. Cherry-Belle were germinated in darkness at 24° C. for 36 h in Petri dishes containing filter paper wetted with distilled water. The smaller of the two cotyledons was excised, the fresh weight determined, and 10 cotyledons placed adaxial side down on filter paper in Petri dishes containing 10 ml of KPO4 buffer (2 mM, pH 6.0) and the compounds to be tested at 20 mg/l. […] Chlorophyll content was determined after extraction of tissue into 80% ethanol (containing butylated hydroxytoluene (BHT) 10 mg/l) using the equations Chl a=(13.95A663)−(6.88A647) and Chl b=(24.96A652)−(7.32A663) as described by Lichtenthaler, HK, Methods in Enzymology 148: 350–382, 1987, incorporated by reference in its entirety. FIG. 6 illustrates the difference in cotyledon size in response to the cytokinin kinetin.

maize roots = assay: Corn root bioassay (ethylene production by maize roots); assay type: in vivo, Zea mays L.; settings: for activity at 20 µg/mL: Zea mays, read-out: Ethylene, % of control; for activity at 20 µg/mL / Ethylene: 20 mg/l
Experimental: Corn root bioassay: It is well established that roots of Zea mays produce ethylene when exposed to a variety of stresses (for review, see Morgan, PW and Drew, MC, Physiologia Plantarum 100: 620–630, 1997). Mechanical impedance and hypoxia both induce ethylene formation and usually as early as 1 hour after exposure. In response to ethylene treatment, maize roots show decreased expansion and elongation, a high incidence of cell death and the formation of aerenchyma tissue—particularly evident when roots are exposed to hypoxic conditions (Drew, MC et al., Trends in Plant Science 5: 123–127, 2000, Morgan and Drew 1997).
Seeds of Zea mays L. were sown in flats of Perlite, covered with a layer of vermiculite, and irrigated daily with water and/or 1/10 Hoagland solution. Seedlings were cultivated under continuous illumination at 22–25° C. and used when 7 d old. Seedlings were removed from the Perlite and washed under running tap water. Seedlings were allowed to acclimate in water and/or 1/10 Hoagland solution for several hours before being transferred to Falcon tubes containing the test compounds (all 20 mg/l) prepared in 1/10 Hoagland solution. […] Roots were then transferred to gas-tight tubes each containing 200 μl of water. The tubes were sealed and incubated at 26° C. for 1–2 h in darkness before gas samples were drawn from the incubation tubes using a 1 ml syringe and assayed by gas chromatography (Romera, FJ et al. (1999) Annals of Botany 83, 51–55).

[2] = experiment 1, 72 h illumination, roots incubated 2 h in gas tight tubes
[3] = experiment 2, 36 h illumination, roots incubated 2 h in darkness at 24° C.
[4] = Table 2, 72 h incubation, 20 mg/l
[5] = summary statement in the description
[6] = Table 3, 48 h incubation, 20 mg/l

SMILES	Chlorophyll (mg/g FW) a + b ([1]; Experiment 2, 20 mg/l, 48 h) [mg/g FW]	Chlorophyll (μg/cotyledon) a + b ([1]; Experiment 2, 20 mg/l, 48 h) [μg/cotyledon]	Chlorophyll a/b ([1]; Experiment 2, 20 mg/l, 48 h)	Change in fresh weight ([1]; Experiment 2, 20 mg/l, 48 h) [mg]	activity at 20 µg/mL ([1]; Experiment 2, 20 mg/l, 48 h) [%]	activity at 20 µg/mL (maize roots; experiment 1, 72 h) [%]	activity at 20 µg/mL (maize roots; experiment 2, 36 h) [%]	Ethylene (maize roots; [3]) [pmol/g FW/h]	Chlorophyll a/b ([1]; Experiment 1, 20 mg/l, 72 h)	Change in fresh weight ([1]; Experiment 1, 20 mg/l, 72 h) [mg]	activity at 20 µg/mL ([1]; Experiment 1, 20 mg/l, 72 h) [%]	ethylene-like activities (summary of the examples) [1, 5]	also measured
O=C(NCCO)c1ccccc1 [NAE-Bz, N-Benzoyl-2-aminoethanol]	1.77	20.87	1.8	7.36 ± 1.00	91	–	–	–	–	–	–	–	–
CCCCCCCCCCCCCCCCCC(=O)NCCO [NAE-18:0, N-Octadecanoyl-2-aminoethanol]	1.85	22.42	1.9	7.75 ± 1.01	96	–	–	–	–	–	–	–	–
CCCCCCCC(=O)NCCO [NAE-8:0, N-Octanoyl-2-aminoethanol]	1.75	22.27	1.8	8.29 ± 0.72	102	116	193	55.46 ± 31.59	1.5	13.32 ± 6.40	95	ethylene-like activities	Ethylene (maize roots; [2]): 685.2 ± 211.6 nL/g FW/h; relative efficacy on ethylene formation (in words) (maize roots; second experiment (Table 5)): strongest effect; chlorophyll accumulation (in words) [1, 4]: greater effect than other NAEs
CCCCCCCCCCCC(=O)NCCO [NAE-12:0, N-Dodecanoyl-2-aminoethanol]	1.79	23.16	2.0	8.53 ± 1.59	–	–	–	–	–	–	–	–	activity at 20 µg/mL ([1]; 48 h): 105%; cytokinin-like activities (summary of the examples) [1, 5]: cytokinin-like activities
O=CNCCO [NAE-1, N-Formyl-2-aminoethanol]	1.62	21.19	2.0	8.68 ± 1.70	107	175	157	45.32 ± 18.98	1.7	7.61 ± 3.42	54	ethylene-like activities	Ethylene (maize roots; [2]): 1034.4 ± 255.3 nL/g FW/h; increase of ethylene production (in words) (maize roots; other experiments using a different treatment time): effective; Chlorophyll a + b ([1]; Experiment 1, 20 mg/l, 72 h): 0.59; cotyledon expansion (in words) [1, 4]: significantly slowed cotyledon expansion
c1coc(CNc2ncnc3[nH]cnc23)c1 [Kinetin, kinetin, reference compound]	0.81	25.78	1.8	27.26 ± 2.88	336	–	–	–	1.2	23.74 ± 7.92	169	–	–
CC(=O)NCCO [NAE-2, N-Acetyl-2-aminoethanol]	1.94	19.88	2.0	5.86 ± 1.36	72	146	160	45.96 ± 12.53	1.3	12.52 ± 2.83	89	ethylene-like activities	chlorophyll accumulation (in words) [1, 4]: greater effect than other NAEs; cotyledon expansion (in words) [1, 6]: slowed cotyledon expansion; hormone-like activity with respect to expansion growth (in words) [1, 6]: ethylene-like activity
